This assay deals with A375-NRAS^Q61K cells. Briefly: CTGlo Cell Viability Assay, A375-NRAS^Q61K (A375.11) cells, 96 hours. It is filed as cell-based, human. Particulars: A375.11 (A375-NRAS^Q61K) cells; for Emax: lowest % viability achieved. The essentials: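 Viability as CellTiter-Glo ATP luminescence after 96 h compound exposure at 37 °C; A375.11 (BRAF V600E/NRAS Q61K) cells at 250/well, top final concentration 10 μM in half-log steps. Signal was background-corrected and set relative to DMSO controls. A 4-parameter logistic fit gave GI50 (50% crossing) and Emax.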

Structures are written as SMILES. Where only a bound is given, the exact number is not on record here.

One may read the GI50 as the concentration at which growth is held to half of that of the control. Read a high GI50 as less potent growth inhibition.

Under “Homo sapiens, 96 h”, `CCN(C)S(=O)(=O)Nc1ccc(F)c(C(=O)c2ccc3ncn(C4CC5(CCN(C6CCC(c7cc8c(cc7F)c(N7CCC(=O)NC7=O)nn8C)CC6)CC5)C4)c(=O)c3c2)c1F` (single isomer, unassigned) [Compound 182, 3-[7-[4-[3-(2,4-dioxohexahydropyrimidin-1-yl)-5-fluoro-1-methyl-indazol-6-yl]cyclohexyl]-7-azaspiro[3.5]nonan-2-yl]-6-[3-[[ethyl(methyl)sulfamoyl]amino]-2,6-difluoro-benzoyl]-4-oxo-quinazoline] displayed a GI50 of 1000 to 10000 nM and an Emax of 50 to 90%.

For `CCN(C)S(=O)(=O)Nc1ccc(F)c(Nc2ccc3ncn([C@@H]4COC5(CCN(C6CCC(c7ccc(NC8CCC(=O)NC8=O)cc7F)CC6)CC5)C4)c(=O)c3c2F)c1C#N` (single isomer, unassigned) [Compound 90], for the setting “Homo sapiens, 96 h”, the GI50 is less than 1000 nM and the Emax was in the range of 50 to 90%.

Where the note is “Homo sapiens, 96 h”, `CCN(C)S(=O)(=O)Nc1ccc(F)c(Oc2ccc3ncc([C@@H]4COC5(CCN(C6CCC(c7cc8c(cc7F)c(N7CCC(=O)NC7=O)nn8C)CC6)CC5)C4)nc3c2)c1C#N` (single isomer, unassigned) [Compound 54] yielded a GI50 of less than 1000 nM and an Emax of less than 50%.

On to `Cn1nc(N2CCC(=O)NC2=O)c2cc(F)c(C3CCC(N4CCC5(CC4)C[C@@H](n4cnc6ccc(Oc7c(F)ccc(NS(=O)(=O)N8CC[C@@H](F)C8)c7C#N)cc6c4=O)CO5)CC3)cc21` (single isomer, unassigned) [Compound 121], for which, for the setting “Homo sapiens, 96 h”, the GI50 was less than 1000 nM and the Emax is less than 50%.

For the setting “Homo sapiens, 96 h”, `CCN(C)S(=O)(=O)Nc1ccc(F)c(Oc2ccc3ncc([C@H]4COC5(CCN(C6CCC(c7cc8c(cc7F)c(N7CCC(=O)NC7=O)nn8C)CC6)CC5)C4)nc3c2)c1C#N` (single isomer, unassigned) [Compound 48] gave a concentration for 50% growth inhibition (GI50) of less than 1000 nM and an Emax of less than 50%.

Where the note is “Homo sapiens, 96 h”, `CCN(C)S(=O)(=O)Nc1ccc(F)c(Oc2ccc3ncc(C4CC5(CCN(C6CCC(c7cc8c(cc7F)c(N7CCC(=O)NC7=O)nn8C)CC6)CC5)C4)nc3c2)c1C#N` (single isomer, unassigned) [Compound 180, 7-[2-cyano-3-[[ethyl(methyl)sulfamoyl]amino]-6-fluoro-phenoxy]-2-[7-[4-[3-(2,4-dioxohexahydropyrimidin-1-yl)-5-fluoro-1-methyl-indazol-6-yl]cyclohexyl]-7-azaspiro[3.5]nonan-2-yl]quinoxaline] came in with a concentration for 50% growth inhibition (GI50) of less than 1000 nM and an Emax of less than 50%.

`CN(CCO)S(=O)(=O)Nc1ccc(F)c(Oc2ccc3ncn(C4CC5(CCN(C6CCC(c7cc8c(cc7F)c(N7CCC(=O)NC7=O)nn8C)CC6F)CC5)C4)c(=O)c3c2)c1C#N` (single isomer, unassigned) [Compound 145, 6-[2-cyano-6-fluoro-3-[[2-hydroxyethyl(methyl)sulfamoyl]amino]phenoxy]-3-[7-[4-[3-(2,4-dioxohexahydropyrimidin-1-yl)-5-fluoro-1-methyl-indazol-6-yl]-2-fluoro-cyclohexyl]-7-azaspiro[3.5]nonan-2-yl]-4-oxo-quinazoline] came in with a GI50 of 1000 to 10000 nM. For the setting “Homo sapiens, 96 h”, this compound showed an Emax of 50 to 90%.

Consider `CO[C@H]1CCN(S(=O)(=O)Nc2ccc(F)c(Oc3ccc4ncn([C@H]5COC6(CCN(C7CC8(C7)CN(c7cc9c(cc7F)c(N7CCC(=O)NC7=O)nn9C)C8)CC6)C5)c(=O)c4c3)c2C#N)C1` [Compound 157, (3S)-N-[2-cyano-3-[3-[(3R)-8-[2-[3-(2,4-dioxohexahydropyrimidin-1-yl)-5-fluoro-1-methyl-indazol-6-yl]-2-azaspiro[3.3]heptan-6-yl]-1-oxa-8-azaspiro[4.5]decan-3-yl]-4-oxo-quinazolin-6-yl]oxy-4-fluoro-phenyl]-3-methoxy-pyrrolidine-1-sulfonamide], for which, for the setting “Homo sapiens, 96 h”, the GI50 was less than 1000 nM and the Emax is 50 to 90%.

For the compound `Cn1nc(N2CCC(=O)NC2=O)c2cc(F)c(N3CC4(CC(N5CCC6(CC5)CC(n5cnc7ccc(Oc8c(F)ccc(NS(=O)(=O)C9CC9)c8C#N)cc7c5=O)C6)C4)C3)cc21` [Compound 260, N-[2-cyano-3-[3-[7-[2-[3-(2,4-dioxohexahydropyrimidin-1-yl)-5-fluoro-1-methyl-indazol-6-yl]-2-azaspiro[3.3]heptan-6-yl]-7-azaspiro[3.5]nonan-2-yl]-4-oxo-quinazolin-6-yl]oxy-4-fluoro-phenyl]cyclopropanesulfonamide], for the setting “Homo sapiens, 96 h”, the GI50 is less than 1000 nM and the Emax was 50 to 90%.

Turning to `CC(C)S(=O)(=O)Nc1ccc(F)c(Oc2ccc3ncn([C@H]4COC5(CCN(C6CCC(c7ccc(NC8CCC(=O)NC8=O)cc7F)CC6)CC5)C4)c(=O)c3c2)c1C#N` (single isomer, unassigned) [Compound 92], under “Homo sapiens, 96 h”, the GI50 was less than 1000 nM and the Emax is less than 50%.

On to `CCN(C)S(=O)(=O)Nc1ccc(F)c(Oc2ccc3ncc(C4CC5(CCN(C6CC7(C6)CN(c6cc8c(cc6F)c(N6CCC(=O)NC6=O)nn8C)C7)CC5)C4)nc3c2)c1C#N` (stereo not shown) [Compound 177, 7-[2-cyano-3-[[ethyl(methyl)sulfamoyl]amino]-6-fluoro-phenoxy]-2-[7-[2-[3-(2,4-dioxohexahydropyrimidin-1-yl)-5-fluoro-1-methyl-indazol-6-yl]-2-azaspiro[3.3]heptan-6-yl]-7-azaspiro[3.5]nonan-2-yl]quinoxaline], for which, where the note is “Homo sapiens, 96 h”, the 50% growth inhibitory concentration (GI50) is less than 1000 nM and the Emax fell in the range of 50 to 90%.

The values above are taken from US20260297060A1, “COMPOUNDS FOR THE DEGRADATION OF MUTANT BRAF” (C4 THERAPEUTICS, INC., priority 2023, published 2026).
